Laboratory results: patent publication US20240285571A1, “METHODS OF TREATING BONE INFECTIONS” (MICROBION CORPORATION, priority 2020, published 2024)
In brackets after ≈: the same amount, converted by molar mass. Like-named read-outs stand apart in the source and are kept apart here.

What was measured:
Type in all cases: cell-based
Escherichia coli = assay: Broth microdilution MIC (Example 6); details: Escherichia coli
Experimental: (§1) Test Compounds: The test agents BisEDT (MB-1-B3; Lot No. ED268-1-11-01), MB-2B, and MB-6 were stored at room temperature, in the dark, until assayed.
(§2) For testing daptomycin, calcium was supplemented with […] Ca^2+, resulting in a final concentration of […] Ca^2+ (2, 3).
(§3) MIC Assay Procedure: MIC values were determined using a broth microdilution procedure described by CLSI (2, 3).
(§4) The Biomek 2000 was then used to make 2-fold serial dilutions in the mother plates from column 1 through column 11. The wells of column 12 contained no drug and served as the organism growth control wells for the assay.
(§5) The test panels were prepared on the Biomek FX instrument which transferred 2 μL of drug solution from each well of a mother plate to the corresponding well of each daughter plate in a single step.
(§6) A standardized inoculum of each test organism was prepared per CLSI methods to equal a 0.5 McFarland standard, followed by a dilution of 1:20. The plates were then inoculated with 10 μL of the diluted inoculum using the Biomek 2000 from low to high drug concentration resulting in a final concentration of approximately 5×10^5 CFU/mL.
(§7) Plates were stacked 3-4 high, covered with a lid on the top plate, placed into plastic bags, and incubated at 35° C. for 16 to 20 hr (vancomycin was read for S. aureus after 24 hr incubation time). The MIC was recorded as the lowest concentration of drug that inhibited visible growth of the organism.

Klebsiella pneumoniae = assay: Broth microdilution MIC (Example 6); details: Klebsiella pneumoniae
Experimental: as §1, §2, §3, §4, §5, §6, §7

Pseudomonas aeruginosa = assay: Broth microdilution MIC (Example 6); details: Pseudomonas aeruginosa
Experimental: as §1, §2, §3, §4, §5, §6, §7

Acinetobacter baumannii = assay: Broth microdilution MIC (Example 6); details: Acinetobacter baumannii
In short: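 CLSI broth microdilution in cation-adjusted Mueller Hinton broth, test agents 0.06-64 μg/mL from DMSO stocks, inoculum approx. 5×10^5 CFU/mL. Incubation 35° C for 16–20 hr; MIC taken as lowest concentration inhibiting visible growth.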

[1] = tested on: relevant ATCC QC organisms; assay: Broth microdilution MIC, QC (Example 6)
In short: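 QC strains were tested per CLSI broth microdilution in cation-adjusted Mueller Hinton broth, with Ca2+ supplemented for daptomycin, at about 5×10^5 CFU/mL. Incubation was at 35° C for 16–20 hr, or 24 hr for vancomycin against S. aureus. The MIC was the lowest concentration inhibiting visible growth.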

[2] = ATCC35218, E. coli ATCC 35218, ESBL, read-out: MIC
[3] = E. coli MMX 5755, ESBL, read-out: MIC
[4] = E. coli MMX 5756, ESBL, read-out: MIC
[5] = E. coli MMX 5758, ESBL, read-out: MIC
[6] = K. pneumoniae CDC 135, ESBL/VIM, read-out: MIC
[7] = K. pneumoniae MMX 9029, ESBL, read-out: MIC
[8] = P. aeruginosa isolate CDC 230, β-lactamase type VIM/OXA, read-out: MIC
[9] = P. aeruginosa isolate CDC 241, β-lactamase type IMP/OXA, read-out: MIC
[10] = P. aeruginosa isolate CDC 439, β-lactamase type IMP, read-out: MIC
[11] = P. aeruginosa isolate CDC 444, β-lactamase type VIM, read-out: MIC
[12] = P. aeruginosa isolate CDC 457, β-lactamase type VIM, read-out: MIC

SMILES: OCC(S)CS.[Bi] (stereo not shown) [MB-2B, bismuth-2,3-dimercaptopropanol]
- MIC (Escherichia coli; [2]): 2 µg/mL
- MIC (Escherichia coli; ATCCBAA2471, E. coli ATCC BAA-2471, NDM): 2 µg/mL
- MIC (Escherichia coli; E. coli CDC 114, ESBL/KPC): 2 µg/mL
- MIC (Escherichia coli; E. coli CDC 118, ESBL/NDM): 4 µg/mL
- MIC (Escherichia coli; E. coli CDC 435, NDM): 2 µg/mL
- MIC (Escherichia coli; E. coli CDC 451, KPC): 2 µg/mL
- MIC (Escherichia coli; E. coli CDC 503, ESBL/NDM): 2 µg/mL
- MIC (Escherichia coli; E. coli MMX 5745, KPC): 4 µg/mL
- MIC (Escherichia coli; [3]): 4 µg/mL
- MIC (Escherichia coli; [4]): 2 µg/mL
- MIC (Escherichia coli; [5]): 4 µg/mL
- MIC (Klebsiella pneumoniae; ATCCBAA1705, K. pneumoniae ATCC BAA-1705, ESBL/KPC): 4 µg/mL
- MIC (Klebsiella pneumoniae; K. pneumoniae CDC 112, KPC): 4 µg/mL
- MIC (Klebsiella pneumoniae; K. pneumoniae CDC 113, ESBL/KPC): 32 µg/mL
- MIC (Klebsiella pneumoniae; K. pneumoniae CDC 115, ESBL/KPC): 16 µg/mL
- MIC (Klebsiella pneumoniae; K. pneumoniae CDC 120, ESBL/KPC): 4 µg/mL
- MIC (Klebsiella pneumoniae; K. pneumoniae CDC 126, ESBL/KPC): 32 µg/mL
- MIC (Klebsiella pneumoniae; K. pneumoniae CDC 129, ESBL/KPC): 4 µg/mL
- MIC (Klebsiella pneumoniae; [6]): 8 µg/mL
- MIC (Klebsiella pneumoniae; K. pneumoniae CDC 138, ESBL/NDM): 16 µg/mL
- MIC (Klebsiella pneumoniae; K. pneumoniae CDC 158, ESBL/NDM/OXA): 4 µg/mL
- MIC (Klebsiella pneumoniae; [7]): 2 µg/mL
- MIC (Pseudomonas aeruginosa; [8]): 4 µg/mL
- MIC (Pseudomonas aeruginosa; P. aeruginosa isolate CDC 231, β-lactamase type KPC/OXA): 16 µg/mL
- MIC (Pseudomonas aeruginosa; [9]): 32 µg/mL
- MIC (Pseudomonas aeruginosa; P. aeruginosa isolate CDC 246, β-lactamase type NDM/OXA): 8 µg/mL
- MIC (Pseudomonas aeruginosa; P. aeruginosa isolate CDC 250, β-lactamase type NDM/OXA): 8 µg/mL
- MIC (Pseudomonas aeruginosa; P. aeruginosa isolate CDC 356, β-lactamase type KPC): 4 µg/mL
- MIC (Pseudomonas aeruginosa; [10]): 4 µg/mL
- MIC (Pseudomonas aeruginosa; [11]): 4 µg/mL
- MIC (Pseudomonas aeruginosa; [12]): 32 µg/mL
- MIC (Pseudomonas aeruginosa; P. aeruginosa isolate CDC 516, β-lactamase type KPC/AmpC): 4 µg/mL
- MIC (Pseudomonas aeruginosa; P. aeruginosa isolate CDC 518, β-lactamase type KPC/AmpC): 4 µg/mL
- MIC (Acinetobacter baumannii; A. baumannii isolate CDC 273, β-lactamase type ESBL/OXA): 32 µg/mL
- MIC (Acinetobacter baumannii; A. baumannii isolate CDC 274, β-lactamase type ESBL/OXA): 32 µg/mL
- MIC (Acinetobacter baumannii; A. baumannii isolate CDC 275, β-lactamase type ESBL/OXA): 32 µg/mL
- MIC (Acinetobacter baumannii; A. baumannii isolate CDC 277, β-lactamase type ESBL/OXA): > 16 µg/mL
- MIC (Acinetobacter baumannii; A. baumannii isolate CDC 284, β-lactamase type ESBL/OXA): > 16 µg/mL
- MIC (Acinetobacter baumannii; A. baumannii isolate CDC 307, β-lactamase type OXA): 32 µg/mL
- MIC (Acinetobacter baumannii; A. baumannii isolate CDC 308, β-lactamase type ESBL/OXA): 32 µg/mL
- MIC (Acinetobacter baumannii; A. baumannii isolate CDC 311, β-lactamase type OXA): 32 µg/mL
- MIC (Acinetobacter baumannii; A. baumannii isolate CDC 312, β-lactamase type OXA): 32 µg/mL
- MIC (Acinetobacter baumannii; A. baumannii isolate CDC 313, β-lactamase type ESBL/OXA): 32 µg/mL
- MIC (Acinetobacter baumannii; NCTC13304, A. baumannii isolate NCTC 13304, β-lactamase type OXA): > 16 µg/mL
- MIC ([1]; Escherichia coli, ATCC25922): 2 µg/mL
- MIC ([1]; Escherichia coli, ATCC35218): 2 µg/mL
- MIC ([1]; Klebsiella pneumoniae, ATCCBAA1705): 4 µg/mL
- MIC ([1]; Pseudomonas aeruginosa, ATCC27853): 2 µg/mL
- MIC ([1]; Staphylococcus aureus, ATCC29213): 1 µg/mL

SMILES: CC(C)(O/N=C(\C(=O)N[C@@H]1C(=O)N2C(C(=O)[O-])=C(C[n+]3ccccc3)CS[C@H]12)c1csc(N)n1)C(=O)O [Ceftazidime]
- MIC (Escherichia coli; [2]): 0.12 µg/mL (≈ 0.22 µM)
- MIC (Escherichia coli; ATCCBAA2471, E. coli ATCC BAA-2471, NDM, read-out: MIC): > 64 µg/mL
- MIC (Escherichia coli; E. coli CDC 114, ESBL/KPC, read-out: MIC): > 64 µg/mL
- MIC (Escherichia coli; E. coli CDC 118, ESBL/NDM, read-out: MIC): > 64 µg/mL
- MIC (Escherichia coli; E. coli CDC 435, NDM, read-out: MIC): > 64 µg/mL
- MIC (Escherichia coli; E. coli CDC 451, KPC, read-out: MIC): 64 µg/mL (≈ 117 µM)
- MIC (Escherichia coli; E. coli CDC 503, ESBL/NDM, read-out: MIC): > 64 µg/mL
- MIC (Escherichia coli; E. coli MMX 5745, KPC, read-out: MIC): 32 µg/mL (≈ 58.5 µM)
- MIC (Escherichia coli; [3]): > 64 µg/mL
- MIC (Escherichia coli; [4]): > 64 µg/mL
- MIC (Escherichia coli; [5]): 16 µg/mL (≈ 29.3 µM)
- MIC (Klebsiella pneumoniae; ATCCBAA1705, K. pneumoniae ATCC BAA-1705, ESBL/KPC, read-out: MIC): > 64 µg/mL
- MIC (Klebsiella pneumoniae; K. pneumoniae CDC 112, KPC, read-out: MIC): > 64 µg/mL
- MIC (Klebsiella pneumoniae; K. pneumoniae CDC 113, ESBL/KPC, read-out: MIC): > 64 µg/mL
- MIC (Klebsiella pneumoniae; K. pneumoniae CDC 115, ESBL/KPC, read-out: MIC): > 64 µg/mL
- MIC (Klebsiella pneumoniae; K. pneumoniae CDC 120, ESBL/KPC, read-out: MIC): > 64 µg/mL
- MIC (Klebsiella pneumoniae; K. pneumoniae CDC 126, ESBL/KPC, read-out: MIC): 4 µg/mL (≈ 7.32 µM)
- MIC (Klebsiella pneumoniae; K. pneumoniae CDC 129, ESBL/KPC, read-out: MIC): > 64 µg/mL
- MIC (Klebsiella pneumoniae; [6]): > 64 µg/mL
- MIC (Klebsiella pneumoniae; K. pneumoniae CDC 138, ESBL/NDM, read-out: MIC): > 64 µg/mL
- MIC (Klebsiella pneumoniae; K. pneumoniae CDC 158, ESBL/NDM/OXA, read-out: MIC): > 64 µg/mL
- MIC (Klebsiella pneumoniae; [7]): 4 µg/mL (≈ 7.32 µM)
- MIC (Pseudomonas aeruginosa; [8]): 64 µg/mL (≈ 117 µM)
- MIC (Pseudomonas aeruginosa; P. aeruginosa isolate CDC 231, β-lactamase type KPC/OXA, read-out: MIC): > 64 µg/mL
- MIC (Pseudomonas aeruginosa; [9]): > 64 µg/mL
- MIC (Pseudomonas aeruginosa; P. aeruginosa isolate CDC 246, β-lactamase type NDM/OXA, read-out: MIC): > 64 µg/mL
- MIC (Pseudomonas aeruginosa; P. aeruginosa isolate CDC 250, β-lactamase type NDM/OXA, read-out: MIC): > 64 µg/mL
- MIC (Pseudomonas aeruginosa; P. aeruginosa isolate CDC 356, β-lactamase type KPC, read-out: MIC): 64 µg/mL (≈ 117 µM)
- MIC (Pseudomonas aeruginosa; [10]): > 64 µg/mL
- MIC (Pseudomonas aeruginosa; [11]): 32 µg/mL (≈ 58.5 µM)
- MIC (Pseudomonas aeruginosa; [12]): > 64 µg/mL
- MIC (Pseudomonas aeruginosa; P. aeruginosa isolate CDC 516, β-lactamase type KPC/AmpC, read-out: MIC): 64 µg/mL (≈ 117 µM)
- MIC (Pseudomonas aeruginosa; P. aeruginosa isolate CDC 518, β-lactamase type KPC/AmpC, read-out: MIC): 32 µg/mL (≈ 58.5 µM)
- MIC (Acinetobacter baumannii; A. baumannii isolate CDC 273, β-lactamase type ESBL/OXA, read-out: MIC): 64 µg/mL
- MIC (Acinetobacter baumannii; A. baumannii isolate CDC 274, β-lactamase type ESBL/OXA, read-out: MIC): > 64 µg/mL
- MIC (Acinetobacter baumannii; A. baumannii isolate CDC 275, β-lactamase type ESBL/OXA, read-out: MIC): > 64 µg/mL
- MIC (Acinetobacter baumannii; A. baumannii isolate CDC 277, β-lactamase type ESBL/OXA, read-out: MIC): > 64 µg/mL
- MIC (Acinetobacter baumannii; A. baumannii isolate CDC 284, β-lactamase type ESBL/OXA, read-out: MIC): 64 µg/mL
- MIC (Acinetobacter baumannii; A. baumannii isolate CDC 307, β-lactamase type OXA, read-out: MIC): 64 µg/mL
- MIC (Acinetobacter baumannii; A. baumannii isolate CDC 308, β-lactamase type ESBL/OXA, read-out: MIC): 64 µg/mL
- MIC (Acinetobacter baumannii; A. baumannii isolate CDC 311, β-lactamase type OXA, read-out: MIC): > 64 µg/mL
- MIC (Acinetobacter baumannii; A. baumannii isolate CDC 312, β-lactamase type OXA, read-out: MIC): > 64 µg/mL
- MIC (Acinetobacter baumannii; A. baumannii isolate CDC 313, β-lactamase type ESBL/OXA, read-out: MIC): > 64 µg/mL
- MIC (Acinetobacter baumannii; NCTC13304, A. baumannii isolate NCTC 13304, β-lactamase type OXA, read-out: MIC): > 64 µg/mL
- MIC ([1]; Escherichia coli, ATCC25922, E. coli ATCC 25922, read-out: MIC): 0.25 µg/mL
- MIC ([1]; Escherichia coli, ATCC35218, E. coli ATCC 35218, read-out: MIC): 0.12 µg/mL
- MIC ([1]; Klebsiella pneumoniae, ATCCBAA1705, K. pneumoniae ATCC BAA-1705, read-out: MIC): > 64 µg/mL
- MIC ([1]; Pseudomonas aeruginosa, ATCC27853, P. aeruginosa ATCC 27853, read-out: MIC): 2 µg/mL
